The subject of the experiment is mouse long-term hematopoietic stem cells. The experiment can be described thus: Reproducibility and concentration dependence test: 1-week culture of sorted Hoxb5-tri-mCherry mouse long-term hematopoietic stem cells, flow cytometry. It counts as cell-based. The settings on record: day 7 of culture, n=2. In short, it runs like this:
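Hoxb5-tri-mCherry+ LT-HSCs (Lin−c-Kit+Sca-1+Flk2−CD34−/lo CD150+) were sorted from mouse bone marrow at 10 cells/well into StemSpan SFEM with SCF and TPO. Cells were cultured with compound for 1 week at 37°C, 5% CO2. Flow cytometry then measured KLS and mCherry+ fractions and cell counts.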

For `CC(=O)OCCO[C@@H]1O[C@@H]2O[C@@]3(C)CC[C@H]4[C@H](C)CC[C@@H]([C@H]1C)[C@@]24OO3` [Example 1-27, 2-{[(3R,5aS,6R,8aS,9R,10R,12R,12aR)-3,6,9-Trimethyldecahydro-12H-3,12-epoxypyrano[4,3-j][1,2]benzodioxepin-10-yl]oxy}ethyl acetate], the KLS-positive rate (Table 4, compound 0.1 μM) worked out at 45.4%; the KLS-positive rate (Table 4, compound 0.3 μM) worked out at 75.0%; the KLS-positive rate (Table 4, compound 1 μM) is given as 100.0%; the KLS-positive rate (Table 4, compound 3 μM) is given as 90.0%; the KLS-positive rate (Table 4, compound 10 μM) is recorded as 49.8%. The Viable cell count is given as 122.0 cell (Table 4, compound 0.1 μM); 14.5 cell (Table 4, compound 0.3 μM); 6.0 cell (Table 4, compound 1 μM); 6.0 cell (Table 4, compound 3 μM); 17.5 cell (Table 4, compound 10 μM). Also, the mCherry-positive rate by setting is: (Table 4, compound 0.1 μM) 44.3%; (Table 4, compound 0.3 μM) 94.7%; (Table 4, compound 1 μM) 100.0%; (Table 4, compound 3 μM) 100.0%; (Table 4, compound 10 μM) 100.0%.
Regarding `CC1=CO[C@@H]2O[C@@]3(C)CC[C@H]4[C@H](C)CC[C@@H]1[C@@]24OO3` [Example 1-28, (3R,5aS,6R,8aS,12R,12aR)-3,6,9-trimethyl-3,4,5,5a,6,7,8,8a-octahydro-12H-3,12-epoxypyrano[4,3-j][1,2]benzodioxepine], the KLS-positive rate reads like this: (Table 4, compound 0.1 μM) 21.5%; (Table 4, compound 0.3 μM) 13.5%; (Table 4, compound 1 μM) 10.5%; (Table 4, compound 3 μM) 16.5%; (Table 4, compound 10 μM) 41.2%. In addition, the Viable cell count runs as follows: (Table 4, compound 0.1 μM) 275.5 cell; (Table 4, compound 0.3 μM) 305.0 cell; (Table 4, compound 1 μM) 522.0 cell; (Table 4, compound 3 μM) 283.0 cell; (Table 4, compound 10 μM) 138.0 cell. Besides, the mCherry-positive rate by setting is: (Table 4, compound 0.1 μM) 12.9%; (Table 4, compound 0.3 μM) 15.0%; (Table 4, compound 1 μM) 35.5%; (Table 4, compound 3 μM) 80.3%; (Table 4, compound 10 μM) 96.4%.
As to `C[C@H]1[C@@H](O)O[C@@H]2O[C@@]3(C)CC[C@H]4[C@H](C)CC[C@@H]1[C@@]24OO3` [Example 1-29, artenimol, reference compound], the KLS-positive rate is, setting by setting: (Table 3, compound 0.1 μM) 8.92%; (Table 3, compound 0.3 μM) 18%; (Table 3, compound 1 μM) 20.05%; (Table 3, compound 3 μM) 0%; (Table 3, compound 10 μM) 0%; (Table 4, compound 0.1 μM) 19.4%. The KLS-positive rate reads like this: (Table 4, compound 0.3 μM) 13.7%; (Table 4, compound 1 μM) 11.3%; (Table 4, compound 3 μM) 80.0%; (Table 4, compound 10 μM) 50.0%. Moreover, the Viable cell count by setting is: (Table 3, compound 0.1 μM) 1563 cell; (Table 3, compound 0.3 μM) 2268 cell; (Table 3, compound 1 μM) 666.5 cell; (Table 3, compound 3 μM) 0 cell; (Table 3, compound 10 μM) 0 cell; (Table 4, compound 0.1 μM) 469.5 cell. For the same compound, the Viable cell count stood at 215.0 cell (Table 4, compound 0.3 μM); 248.0 cell (Table 4, compound 1 μM); 4.5 cell (Table 4, compound 3 μM); 0.5 cell (Table 4, compound 10 μM). Moreover, the mCherry-positive rate by setting is: (Table 3, compound 0.1 μM) 16.9%; (Table 3, compound 0.3 μM) 42.4%; (Table 3, compound 1 μM) 84.8%; (Table 3, compound 3 μM) 0%; (Table 3, compound 10 μM) 0%; (Table 4, compound 0.1 μM) 13.3%. Also, the mCherry-positive rate by setting is: (Table 4, compound 0.3 μM) 6.0%; (Table 4, compound 1 μM) 3.9%; (Table 4, compound 3 μM) 100.0%; (Table 4, compound 10 μM) 50.0%.

Source of the values: patent publication US20230094952A1, “Method for Culturing Hematopoietic Stem Cells” (Sumitomo Pharma Co., Ltd., priority 2019, published 2023).
